Values of other authors in US6858612B1, “Use of tetrahydropteridine derivatives as no synthase inhibitors” (Vasopharm Buitech GmbH, priority 1994, dated 2005).

Test system: NO synthases

Structure (SMILES)	effect on NO synthase activity (Hevel and Marletta, Giovanelli et al. only at relatively high concentrations)	effect on NO production (literature reports (Kwon et al., Giovanelli et al., Overfeld et al.), concentration-dependent)
CC1CNc2nc(N)[nH]c(=O)c2N1 (centres unmarked) [6-methyl-5,6,7,8-tetrahydropterin]	increase in NO synthase activity	–
C[C@H](O)[C@H](O)C1=Nc2c(nc(N)[nH]c2=O)NC1 [7,8-dihydrobiopterin]	–	Stimulation of NO production
